A word on the IC50: it is the concentration needed to halve the response being measured.

Where a name gives a salt, the structure may show the parent alone.

T1 sequence (Q9UM73 1058-1620): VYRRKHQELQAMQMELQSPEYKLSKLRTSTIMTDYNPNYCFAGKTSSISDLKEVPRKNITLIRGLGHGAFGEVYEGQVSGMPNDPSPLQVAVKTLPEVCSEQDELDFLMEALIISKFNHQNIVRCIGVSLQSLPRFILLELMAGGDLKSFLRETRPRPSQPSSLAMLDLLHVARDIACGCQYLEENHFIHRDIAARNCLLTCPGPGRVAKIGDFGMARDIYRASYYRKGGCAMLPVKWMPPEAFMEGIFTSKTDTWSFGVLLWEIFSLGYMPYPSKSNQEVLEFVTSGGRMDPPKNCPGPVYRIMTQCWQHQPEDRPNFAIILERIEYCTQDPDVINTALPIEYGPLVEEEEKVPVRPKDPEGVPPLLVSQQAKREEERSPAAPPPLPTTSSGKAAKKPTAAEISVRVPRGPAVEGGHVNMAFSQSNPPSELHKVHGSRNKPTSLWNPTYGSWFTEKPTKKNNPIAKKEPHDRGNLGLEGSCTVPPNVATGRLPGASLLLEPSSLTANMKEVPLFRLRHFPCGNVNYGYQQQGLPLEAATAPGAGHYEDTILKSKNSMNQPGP

This test concerns the target T1, wild-type human ALK protein (cytoplasmic domain, amino acid 1058-1620, N-terminal GST-fusion) (Homo sapiens, UniProt Q9UM73).
T1 construct: The cytoplasmic domain (amino acid 1058-1620) of wild-type human ALK protein; GST (N); purchased Carna Biosciences, Inc (Japan)
The test can be described thus: Enzymatic inhibition assay (time-resolved fluorescence, peptide substrate phosphorylation). Format: biochemical. To be noted: ATP 100 μM, 30 min pre-incubation, 90 min reaction, read-out: WT IC50. How it is done:
Enzymatic Inhibition Assay
The cytoplasmic domain (amino acid 1058-1620) of wild-type human ALK protein expressed as N-terminal GST-fusion protein was purchased from Carna Biosciences, Inc (Japan). Compound solution (2.5 μL) and 5 μL of protein solution were added into a black low volume 384 well microtiter plate which was incubated for 30 minutes with gentle shaking at room temperature, followed by adding 2.5 μL of fluorescently labeled peptide substrate and ATP mixture solution. The kinase reaction was performed in 50 mM HEPES (pH 7.5) with 1 mM EGTA, 1 mM MgCl2, and 2 mM DTT, 0.01% Tween-20 added immediately prior to the assay. Final concentrations of ATP, substrates, and DMSO were 100 μM, 20 nM, and 0.5%, respectively. The final ALK concentrations were […]. The reaction was allowed to proceed for 90 minutes in the dark with gentle shaking at rt after which 10 μL of 20 mM EDTA and 2 nM Eu-W1024 anti-phosphotyrosine antibody (PT66) mixture solution in the detection buffer from the manufacturer was added to terminate the reaction and detect the phosphorylation of the peptide substrate. The final mixture was incubated in the dark for 1 h before the plate was read on a Tecan Infinite M-1000 multi-mode plate reader (Tecan, Durham N.C.) with an excitation wavelength of 320 nm. Emission intensities were measured at both 620 and 665 nm with the intensity ratio between 665 and 620 nm corresponding to the peptide substrate phosphorylation. IC50 values of inhibitors were obtained by fitting the ratio of 665/620 nm vs inhibitor concentrations in a sigmoidal dose-response curve (variable slope) with a non-linear regression.
In the case of `COc1c(N2C[C@@H](C)N(C)[C@@H](C)C2)cc2c(c1F)c(=O)c1c3ccc(C#N)cc3[nH]c1n2C(C)C` [compound 8, 1-fluoro-5-isopropyl-2-methoxy-11-oxo-3-(cis-3,4,5-trimethylpiperazin-1-yl)-6,11-dihydro-5H-indolo[2,3-b]quinoline-8-carbonitrile], the IC50 was determined as 0.52 nM.
With `CC(C)Oc1c(N2CCC(N3CCOCC3)CC2)cc2c(c1F)c(=O)c1c3ccc(C#N)cc3[nH]c1n2C(C)C` [Cpd. No. 1, 1-fluoro-2-isopropoxy-5-isopropyl-3-(4-morpholinopiperidin-1-yl)-11-oxo-6,11-dihydro-5H-indolo[2,3-b]quinoline-8-carbonitrile] the figure was 2.4 nM; with `COc1c(N2CCN(C3COC3)CC2)cc2c(c1F)c(=O)c1c3ccc(C#N)cc3[nH]c1n2C(C)C` [compound 6, 1-fluoro-5-isopropyl-2-methoxy-3-(4-(oxetan-3-yl)piperazin-1-yl)-11-oxo-6,11-dihydro-5H-indolo[2,3-b]quinoline-8-carbonitrile], 5.4 nM; with `CC(C)Oc1cc2c(=O)c3c4ccc(C#N)cc4[nH]c3n(C(C)C)c2c(F)c1N1C[C@@H](C)N(C)[C@@H](C)C1` [compound 11, 4-fluoro-2-isopropoxy-5-isopropyl-11-oxo-(cis-3,4,5-trimethylpiperazin-1-yl)-6,11-dihydro-5H-indolo[2,3-b]quinoline-8-carbonitrile (TFA salt)], 7.8 nM.
Regarding `CC(C)Oc1c(N2CCN(C3COC3)CC2)cc2c(c1F)c(=O)c1c3ccc(C#N)cc3[nH]c1n2C(C)C` [compound 5, 1-fluoro-2-isopropoxy-5-isopropyl-3-(4-(oxetan-3-yl)piperazin-1-yl)-11-oxo-6,11-dihydro-5H-indolo[2,3-b]quinoline-8-carbonitrile], the IC50 was determined as 4.3 nM.
With `CC(C)Oc1c(N2CCN(C(C)C)CC2)cc2c(c1F)c(=O)c1c3ccc(C#N)cc3[nH]c1n2C(C)C` [compound 4, 1-fluoro-2-isopropoxy-5-isopropyl-3-(4-isopropylpiperazin-1-yl)-11-oxo-6,11-dihydro-5H-indolo[2,3-b]quinoline-8-carbonitrile] the figure was 0.83 nM; with `COCCOc1cc2c(=O)c3c4ccc(C#N)cc4[nH]c3n(C(C)C)c2c(F)c1N1CCN(C2CCOCC2)CC1` [compound 9, 4-fluoro-5-isopropyl-2-(2-methoxyethoxy)-11-oxo-3-(4-(tetrahydro-2H-pyran-4-yl)piperazin-1-yl)-6,11-dihydro-5H-indolo[2,3-b]quinoline-8-carbonitrile (TFA salt)], 54.4 nM.
Under `CC(C)Oc1c(N2CCN(C3CCOCC3)CC2)cc2c(c1F)c(=O)c1c3ccc(C#N)cc3[nH]c1n2C(C)C` [compound 2, 1-fluoro-2-isopropoxy-5-isopropyl-11-oxo-3-(4-(tetrahydro-2H-pyran-4-yl)piperazin-1-yl)-6,11-dihydro-5H-indolo[2,3-b]quinoline-8-carbonitrile] stands 1.5 nM; under `COc1c(N2CCN(C3CCOCC3)CC2)cc2c(c1F)c(=O)c1c3ccc(C#N)cc3[nH]c1n2C(C)C` [compound 7, 1-fluoro-5-isopropyl-2-methoxy-11-oxo-3-(4-(tetrahydro-2H-pyran-4-yl)piperazin-1-yl)-6,11-dihydro-5H-indolo[2,3-b]quinoline-8-carbontrile], 1.4 nM; under `COCCOc1cc2c(=O)c3c4ccc(C#N)cc4[nH]c3n(C(C)C)c2c(F)c1N1C[C@@H](C)N(C)[C@@H](C)C1` [compound 10, 4-f1uoro-5-isopropyl-2-(2-methoxyethoxy)-11-oxo-3-(cis-3,4,5-trimethylpiperazin-1-yl)-6,11-dihydro-5H-indolo[2,3-b]quinoline-8-carbonitrile (TFA salt)], 16.9 nM.
With `CC(C)Oc1c(N2C[C@@H](C)N(C)[C@@H](C)C2)cc2c(c1F)c(=O)c1c3ccc(C#N)cc3[nH]c1n2C(C)C` [compound 3, 1-fluoro-2-isopropoxy-5-isopropyl-11-oxo-3-(cis-3,4,5-trimethylpiperazin-1-yl)-6,11-dihydro-5H-indolo[2,3-b]quinoline-8-carbonitrile] the figure was 0.57 nM.

For the origin of these results see patent US20210087188A1, “5,6-DIHYDRO-1 1H-INDOLO{2,3-B}QUINOLIN- 11-ONE COMPOUNDS AS ALK INHIBITORS” (THE REGENTS OF THE UNIVERSITY OF MICHIGAN, priority 2018, published 2021).
